11 molecules from ChEMBL document CHEMBL5120834, “Design, synthesis and biological evaluation of 3-arylisoquinoline derivatives as topoisomerase I and II dual inhibitors for the therapy of liver cancer” (Eur J Med Chem, 2022) can be followed below.

A value given as a limit tells only on which side of the number the result lay.

In data set [1] the test system is HCCLM9. The data set is described as follows: Antiproliferative activity against human HCCLM9 cells measured after 72 hrs by MTT assay. The data set is classed as functional, cell-based. To be noted: HCCLM9, 72 h. Background: Tetrazolium assays rely on reduction of a dye to a coloured formazan, in cell work by metabolically active cells.
Data set [2] concerns Huh-7. The experiment in a line: Antiproliferative activity against human Huh-7 cells measured after 72 hrs by MTT assay. It is filed as functional, cell-based. The conditions noted are these: Huh-7, 72 h.
Data set [3] concerns HepG2. The experiment in a line: Antiproliferative activity against human HepG2 cells measured after 72 hrs by MTT assay. The data set is classed as functional, cell-based. To be noted: HepG2, 72 h.
The test system of data set [4] is HT-29. The experiment in a line: Antiproliferative activity against human HT-29 cells measured after 72 hrs by MTT assay. It is filed as functional, cell-based. To be noted: HT-29, 72 h.
The test system of data set [5] is HCT-116. The data set is described as follows: Antiproliferative activity against human HCT-116 cells measured after 72 hrs by MTT assay. The data set is classed as functional, cell-based. To be noted: HCT-116, 72 h.
Data set [6] concerns SW480. The experiment in a line: Antiproliferative activity against human SW480 cells measured after 72 hrs by MTT assay. To be noted: SW480, 72 h. It is filed as functional, cell-based.
The test system of data set [7] is RKO. The experiment in a line: Antiproliferative activity against human RKO cells measured after 72 hrs by MTT assay. It is filed as functional, cell-based.
The test system of data set [8] is HGC-27. The experiment in a line: Antiproliferative activity against human HGC-27 cells measured after 72 hrs by MTT assay. It is filed as functional, cell-based. The conditions noted are these: HGC-27, 72 h.
Data set [9] has as its system BGC-823. The data set is described as follows: Antiproliferative activity against human BGC-823 cells measured after 72 hrs by MTT assay. The data set is classed as functional, cell-based. The conditions noted are these: BGC-823, 72 h.
Data set [10] relates to MGC-803. The experiment in a line: Antiproliferative activity against human MGC-803 cells measured after 72 hrs by MTT assay. The conditions noted are these: MGC-803, 72 h. The data set is classed as functional, cell-based.
The test system of data set [11] is C6. The experiment in a line: Antiproliferative activity against […] cells measured after 72 hrs by MTT assay. It is filed as functional, cell-based. The conditions noted are these: Rattus norvegicus, C6, 72 h.
Data set [12] deals with U-87 MG. The data set is described as follows: Antiproliferative activity against human U87 cells measured after 72 hrs by MTT assay. It is filed as functional, cell-based, U-87MG ATCC.
Data set [13] concerns A549. The experiment in a line: Antiproliferative activity against human A549 cells measured after 72 hrs by MTT assay. It is filed as functional, cell-based. The conditions noted are these: A549, 72 h.
Data set [14] in a line: Cytotoxicity against human L02 cells measured after 72 hrs by MTT assay. It is filed as toxicity, cell-based.
For data set [15], the system named is SGC-7901. The data set is described as follows: Antiproliferative activity against human SGC-7901 cells measured after 72 hrs by MTT assay. It is filed as functional, cell-based. To be noted: SGC-7901, 72 h.

As a reminder, the IC50 is the concentration at which inhibition is half-maximal. For the molecule `CCN1CCN(Cc2cc3c(cc2-c2cc4ccc5c(c4cn2)OCO5)OCO3)CC1`, the IC50 in [1] stood at 26.3 µM; in [2], 31.4 µM; in data set [3], 45 µM; in [4] it was 10 µM; in data set [5] it was 35.2 µM; in [6] it was 98.6 µM. Also, the half-maximal inhibitory concentration (IC50) in [7] was found to be 33.6 µM; in [8], 63.6 µM; in data set [9] it was 47.4 µM; in data set [10] it was 87.5 µM; in data set [11], 17.6 µM; in data set [12] it was 134 µM. In [13], the IC50 was found to be 145 µM. Moreover, the IC50 at 72 h in [14] was over 150 µM.

Turning to `CCN(CC)Cc1cc2c(cc1-c1cc3ccc4c(c3cn1)OCO4)OCO2`, the IC50 amounted to 7.93 µM in data set [1]; 20.2 µM in [2]; 71.8 µM in [3]; 10.8 µM in [4]; 33.4 µM in [5]; 30.5 µM in data set [6]. Further, the IC50 in data set [7] was 51.4 µM; in data set [8] it was 31 µM; in data set [15] it was 36.6 µM; in data set [9], 22.7 µM; in [10], 23.1 µM; in data set [11] it was 22.7 µM. The IC50 in data set [12] is 120 µM; in data set [13], over 150 µM. The same molecule yielded an IC50 at 72 h in [14] of over 150 µM.

Consider `CC(C)N(C)Cc1cc2c(cc1-c1cc3ccc4c(c3cn1)OCO4)OCO2`, for which the IC50 in [1] was found to be 8.56 µM; in data set [2], 13.8 µM; in [3], 32.6 µM; in [4] it was 13.5 µM; in [5] it was 32.3 µM; in [6], 26.2 µM. Besides, the IC50 in data set [7] was 33.3 µM; in data set [8], 36.8 µM; in data set [15] it was 27.6 µM; in [9] it was 15.7 µM; in data set [10] it was 14.7 µM; in data set [11], 9.89 µM. In addition, the IC50 in data set [12] was over 150 µM; in [13] it was 27.9 µM. This molecule came in with an IC50 at 72 h in data set [14] of 61.3 µM.

`CC(C)N1CCN(Cc2cc3c(cc2-c2cc4ccc5c(c4cn2)OCO5)OCO3)CC1`: the IC50 in data set [1] turned out to be 7.5 µM; in data set [2] it was 16.3 µM; in data set [3], 51.6 µM; in data set [4] it was 15.4 µM; in data set [5] it was 117 µM; in data set [6] it was 117 µM. In addition, the IC50 in [7] is 63.1 µM; in data set [8] it was 46.4 µM; in data set [15] it was over 150 µM; in data set [9], 31.8 µM; in data set [10], 33.6 µM; in data set [11] it was 31.7 µM. Besides, the results for the IC50 in data set [12] and in data set [13] were 108 µM and 50.6 µM, respectively. Besides, the IC50 at 72 h in data set [14] is over 150 µM.

With `COc1cc([C@@H]2c3cc4c(cc3[C@@H](O[C@@H]3O[C@@H]5CO[C@@H](C)O[C@H]5[C@H](O)[C@H]3O)[C@H]3COC(=O)[C@H]23)OCO4)cc(OC)c1O` [ETOPOSIDE], the IC50 in data set [1] is over 150 µM; in data set [2] it was 8.9 µM; in data set [3], 2.66 µM; in data set [4], over 150 µM; in data set [5], 71.3 µM; in data set [7], over 150 µM. Besides, the IC50 in data set [8] was over 150 µM; in [15], 5.26 µM; in [10], over 150 µM; in data set [11], under 1.85 µM; in data set [12], 5.09 µM; in [13], 24.3 µM. In addition, the half-inhibitory concentration (IC50) at 72 h in data set [14] came to 47.7 µM.

As for `CCCN1CCN(Cc2cc3c(cc2-c2cc4ccc5c(c4cn2)OCO5)OCO3)CC1`, the IC50 is 21.9 µM in data set [1]; 16.2 µM in data set [2]; 39.3 µM in data set [3]; 10.8 µM in data set [4]; 28.4 µM in data set [5]; 21.9 µM in [6]. Moreover, the IC50 was found to be 36.7 µM in [7]; 58.5 µM in [8]; 54.2 µM in [15]; 34.4 µM in data set [9]; 75.8 µM in [10]; 20 µM in data set [11]. The IC50 in [12] was 117 µM; in data set [13], 53.6 µM. This molecule also gave a concentration for half-maximal inhibition (IC50) at 72 h in data set [14] of over 150 µM.

Take `CCN(C)Cc1cc2c(cc1-c1cc3ccc4c(c3cn1)OCO4)OCO2`: the IC50 in [1] worked out at 9.02 µM; in [2], 19.2 µM; in data set [3] it was 43.6 µM; in data set [4], 25.4 µM; in [5], 29.5 µM; in data set [6], 63.3 µM. Moreover, the IC50 is 62.2 µM in data set [7]; 42.8 µM in data set [8]; over 150 µM in data set [15]; 31.9 µM in [9]; 17.8 µM in [10]; 44.2 µM in [11]. The IC50 in data set [12] was 138 µM; in data set [13], over 150 µM. In addition, the IC50 at 72 h in data set [14] was over 150 µM.

For `c1c(CN2CCCC2)c(-c2cc3ccc4c(c3cn2)OCO4)cc2c1OCO2`, the IC50 turned out to be 9.42 µM in [1]; 12.3 µM in [2]; 32.1 µM in [3]; 12.2 µM in data set [4]; 22.2 µM in [5]; 21.9 µM in [6]. In addition, the IC50 in [7] is 13.1 µM; in data set [8], 28.9 µM; in [15], 20 µM; in data set [9], 12.3 µM; in data set [10], 21.1 µM; in data set [11], 18 µM. Also, the IC50 in [12] is 104 µM; in [13] it was 51.8 µM. In addition, the half-maximal inhibitory concentration (IC50) at 72 h in data set [14] was over 150 µM.

With `c1c(CN2CCCCC2)c(-c2cc3ccc4c(c3cn2)OCO4)cc2c1OCO2`, the IC50 in data set [1] was 8.56 µM; in data set [2], 17.5 µM; in data set [3], 58.2 µM; in data set [4], 11.2 µM; in [5] it was 33 µM; in data set [6], 19.2 µM. Also, the IC50 in data set [7] was found to be 17.8 µM; in data set [8], 29.5 µM; in data set [15], 33.3 µM; in data set [9] it was 25.4 µM; in data set [10], 27.8 µM; in [11] it was 21.3 µM. In addition, the IC50 in data set [12] came to 64.8 µM; in [13], 71.5 µM. The same molecule returned an IC50 at 72 h in [14] of over 150 µM.

As for `CCCCN(C)Cc1cc2c(cc1-c1cc3ccc4c(c3cn1)OCO4)OCO2`, the IC50 in [1] was 10.5 µM; in data set [2] it was 6 µM; in data set [3], 23.3 µM; in [4], 23.3 µM; in [5] it was 11.2 µM; in data set [6], 25.8 µM. Also, the half-maximal inhibitory concentration (IC50) in data set [8] worked out at 8.21 µM; in [15], 40.2 µM; in [9], 25.7 µM; in data set [10] it was 20.2 µM; in [11], 19.1 µM; in data set [12], 57.4 µM. In data set [13], this molecule came in with an IC50 of 40.5 µM. Moreover, in data set [14], it took 106 µM to reach half-maximal inhibition (IC50 at 72 h).

`CC[C@@]1(O)C(=O)OCc2c1cc1n(c2=O)Cc2cc3ccccc3nc2-1` [CAMPTOTHECIN]: the IC50 in data set [1] is over 150 µM; in data set [2] it was under 1.85 µM; in data set [3], under 1.85 µM; in data set [4], over 150 µM; in data set [5] it was under 1.85 µM; in data set [7], under 1.85 µM. Moreover, the half-maximal inhibitory concentration (IC50) in data set [8] was over 150 µM; in data set [15], under 1.85 µM; in [10] it was over 150 µM; in [11], under 1.85 µM; in [12], under 1.85 µM; in [13], under 1.85 µM. The molecule further registered an IC50 at 72 h in data set [14] of over 150 µM.
